# Patent publication US20230303552A1, “ARYLSULFONYL DERIVATIVES AND THEIR USE AS MUSCARINIC ACETYLCHOLINE RECEPTOR M5 INHIBITORS” (Vanderbilt University, priority 2020, published 2023)
# Molecular target: T1, human M5 receptors (hM5) (Homo sapiens, UniProt P08912)
# T1 construct: expressed in transfected cells
# T1 sequence (P08912 1-532): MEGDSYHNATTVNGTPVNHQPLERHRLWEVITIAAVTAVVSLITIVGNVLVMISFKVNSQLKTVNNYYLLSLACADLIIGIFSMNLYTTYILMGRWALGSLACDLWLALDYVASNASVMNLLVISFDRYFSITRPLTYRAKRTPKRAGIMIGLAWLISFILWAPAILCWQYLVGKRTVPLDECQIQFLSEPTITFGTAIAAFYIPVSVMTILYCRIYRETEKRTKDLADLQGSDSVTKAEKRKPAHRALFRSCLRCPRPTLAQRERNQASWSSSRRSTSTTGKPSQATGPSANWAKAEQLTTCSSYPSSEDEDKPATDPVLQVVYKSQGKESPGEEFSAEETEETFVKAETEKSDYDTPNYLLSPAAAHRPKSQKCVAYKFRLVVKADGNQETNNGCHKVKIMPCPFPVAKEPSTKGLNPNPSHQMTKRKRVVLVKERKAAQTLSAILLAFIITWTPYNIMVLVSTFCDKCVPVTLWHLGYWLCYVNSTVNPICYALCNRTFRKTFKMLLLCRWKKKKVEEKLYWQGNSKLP
# Assay: Cell-based functional calcium mobilization assay of mAChR M5 activity (inhibition of EC80 acetylcholine response) in CHO cells
# Settings: CHO cells stably expressing hM5; for IC50: calcium flux (Fluo-4), EC80 acetylcholine addition; for EC80 MIN: minimum of EC80 acetylcholine response, normalized to maximum acetylcholine response
# Method in brief: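 CHO cells stably expressing human M5, loaded with Fluo-4 AM in HBSS/20 mM HEPES/2.5 mM probenecid pH 7.4. Compound added 140 s before acetylcholine EC20, then EC80 added 125 s later. Calcium flux normalized to maximal acetylcholine response; IC50 from ten-point curves in the EC80 window.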
compound,measurement,value
"COc1ccc(S(=O)(=O)N2CCC(C(=O)Nc3ccc4scnc4c3)CC2)cn1 [Compound 10, N-(benzo[d]thiazol-5-yl)-1-((6-methoxypyridin-3-yl)sulfonyl)piperidine-4-carboxamide]",IC50,1.32 µM
same,EC80 MIN,3%
"O=C(Nc1ccc2scnc2c1)C1CCN(S(=O)(=O)c2ccc(C(F)(F)F)nc2)CC1 [Compound 11, N-(benzo[d]thiazol-5-yl)-1-((6-(trifluoromethyl)pyridin-3-yl)sulfonyl)piperidine-4-carboxamide]",IC50,> 10 µM
same,EC80 MIN,52%
"O=C(Nc1ccc2[nH]cnc2c1)C1CCN(S(=O)(=O)c2ccc3c(c2)CCO3)CC1 [Compound 13, N-(1H-benzo[d]imidazol-5-yl)-1-((2,3-dihydrobenzofuran-5-yl)sulfonyl)piperidine-4-carboxamide]",IC50,> 10 µM
same,EC80 MIN,22%
"O=C(Nc1ccc2scnc2c1)C1CN(S(=O)(=O)c2ccc3c(c2)CCO3)C1 [Compound 16, N-(benzo[d]thiazol-5-yl)-1-((2,3-dihydrobenzofuran-5-yl)sulfonyl)azetidine-3-carboxamide]",IC50,1.78 µM
same,EC80 MIN,2%
"Cc1noc(C)c1S(=O)(=O)N1CCC(C(=O)Nc2ccc3scnc3c2)CC1 [Compound 17, N-(benzo[d]thiazol-5-yl)-1-((3.5-dimcthylisoxazol-4-yl)sulfonyl)piperidine-4-carboxamide]",IC50,0.766 µM
same,EC80 MIN,3%
"O=C(Nc1ccc2scnc2c1)C1CCN(S(=O)(=O)c2cccnc2)CC1 [Compound 18, N-(benzo[d]thiazol-5-yl)-1-(pyridin-3-ylsulfonyl)piperidine-4-carboxamide]",IC50,0.056 µM
same,EC80 MIN,2%
"Cc1nc(C(F)(F)F)c(S(=O)(=O)N2CCC(C(=O)Nc3ccc4scnc4c3)CC2)s1 [Compound 19, N-(benzo[d]thiazol-5-yl)-1-((2-methyl-4-(trifluoromcthyl)thiazol-5-yl)sulfonyl)piperidine-4-carboxamide]",IC50,3.13 µM
same,EC80 MIN,19%
"Cn1cnc(S(=O)(=O)N2CCC(C(=O)Nc3ccc4scnc4c3)CC2)c1 [Compound 20, N-(benzo[d]thiazol-5-yl)-1-((1-methyl-1H-imidazol-4-yl)sulfonyl)piperidine-4-carboxamide]",IC50,> 10 µM
same,EC80 MIN,49%
"O=C(Nc1ccc2scnc2c1)C1CCN(S(=O)(=O)c2cccc3nsnc23)CC1 [Compound 21, 1-(benzo[c][1,2,5]thiadiazol-4-ylsulfonyl)-N-(benzo[d]thiazol-5-yl)piperidine-4-carboxamide]",IC50,0.434 µM
same,EC80 MIN,3%
"CC1(C(=O)Nc2ccc3scnc3c2)CN(S(=O)(=O)c2ccc3c(c2)CCO3)C1 [Compound 22, N-(benzo[d]thiazol-5-yl)-1-((2,3-dihydrobenzofuran-5-yl)sulfonyl)-3-methylazetidine-3-carboxamide]",IC50,> 10 µM
same,EC80 MIN,43%
"O=C(Nc1ccc2scnc2c1)[C@@H]1CCN(S(=O)(=O)c2ccc3c(c2)CCO3)C1 [Compound 24, (R)-N-(benzo[d]thiazol-5-yl)-1-((2,3-dihydrobenzofuran-5-yl)sulfonyl)pyrrolidine-3-carboxamide]",IC50,0.032 µM
same,EC80 MIN,2%
"Cn1cnc2cc(S(=O)(=O)N3CCC(C(=O)Nc4ccc5scnc5c4)CC3)ccc21 [Compound 27, N-(benzo[d]thiazol-5-yl)-1-((1-methyl-1H-benzo[d]imidazol-5-yl)sulfonyl)piperidine-4-carboxamide]",IC50,> 10 µM
same,EC80 MIN,42%
"Cn1nnc2cc(S(=O)(=O)N3CCC(C(=O)Nc4ccc5scnc5c4)CC3)ccc21 [Compound 28, N-(benzo[d]thiazol-5-yl)-1-((1-methyl-1H-benzo[d][1,2,3]triazol-5-yl)sulfonyl)piperidine-4-carboxamide]",IC50,> 10 µM
same,EC80 MIN,9%
"O=C(Nc1ccc2scnc2c1)C1CCN(S(=O)(=O)c2ccc3c(c2)OC(F)(F)O3)CC1 [Compound 29, N-(benzo[d]thiazol-5-yl)-1-((2.2-difluorobenzo[d][1,3]dioxol-5-yl)sulfonyl)piperidine-4-carboxamide]",IC50,> 10 µM
same,EC80 MIN,60%
"O=C(Nc1ccc2scnc2c1)C1CCN(S(=O)(=O)c2cccc(OC(F)(F)F)c2)CC1 [Compound 30, N-(benzo[d]thiazol-5-yl)-1-((3-(trifluoromethoxy)phenyl)sulfonyl)piperidine-4-carboxamide]",IC50,> 10 µM
same,EC80 MIN,57%
"Cc1cccc(S(=O)(=O)N2CCC(C(=O)Nc3ccc4scnc4c3)CC2)c1 [Compound 31, N-(benzo[d]thiazol-5-yl)-1-(m-tolylsulfonyl)piperidine-4-carboxamide]",IC50,9.16 µM
same,EC80 MIN,5%
"O=C(Nc1ccc2scnc2c1)C1CCN(S(=O)(=O)c2ccc(F)c(F)c2)CC1 [Compound 32, N-(benzo[d]thiazol-5-yl)-1-((3,4-difluorophenyl)sulfonyl)pip eridine-4-carboxamide]",IC50,1.93 µM
same,EC80 MIN,3%
"Cc1ccccc1S(=O)(=O)N1CCC(C(=O)Nc2ccc3scnc3c2)CC1 [Compound 33, N-(benzo[d]thiazol-5-yl)-1-(o-tolylsulfonyl)piperidine-4-carboxamide]",IC50,> 10 µM
same,EC80 MIN,6%
"COc1cccc(S(=O)(=O)N2CCC(C(=O)Nc3ccc4scnc4c3)CC2)c1 [Compound 34, N-(benzo[d]thiazol-5-yl)-1-((3-methoxyphenyl)sulfonyl)pi pendine-4-carboxamide]",IC50,> 10 µM
same,EC80 MIN,18%
"Cc1cc(S(=O)(=O)N2CCC(C(=O)Nc3ccc4scnc4c3)CC2)cnc1Cl [Compound 35, N-(benzo[d]thiazol-5-yl)-1-((6-chloro-5-methylpyridin-3-yl)sulfonyl)piperidine-4-carboxamide]",IC50,0.083 µM
same,EC80 MIN,3%
"Cn1ncc2cc(S(=O)(=O)N3CCC(C(=O)Nc4ccc5scnc5c4)CC3)cnc21 [Compound 36, N-(benzo[d]thiazol-5-yl)-1-((1-methyl-1H-pyrazolo[3,4-b]pyridin-5-yl)sulfonyl)piperidine-4-carboxamide]",IC50,> 10 µM
same,EC80 MIN,40%
"Cc1noc2ncc(S(=O)(=O)N3CCC(C(=O)Nc4ccc5scnc5c4)CC3)cc12 [Compound 37, N-(benzo[d]thiazol-5-yl)-1-((3-methylisoxazolo[5,4-b]pyridin-5-yl)sulfonyl)piperidine-4-carboxamide]",IC50,> 10 µM
same,EC80 MIN,60%
"O=C(Nc1ccc2scnc2c1)[C@@H]1CCN(S(=O)(=O)c2cccnc2)C1 [Compound 39, (R)-N-(benzo[d]thiazol-5-yl)-1-(pyridin-3-ylsulfonyl)pyrrolidine-3-carboxamide]",IC50,> 10 µM
same,EC80 MIN,27%
"O=C(Nc1ccc2scnc2c1)C1CCN(S(=O)(=O)c2cc3c(cc2F)OCC3)CC1 [Compound 41, N-(benzo[d]thiazol-5-yl)-1-((6-fluoro-2,3-dihydrobenzofuran-5-yl)sulfonyl)piperidine-4-carboxamide]",IC50,0.046 µM
same,EC80 MIN,2%
"O=C(Nc1ccc2scnc2c1)[C@@H]1CCN(S(=O)(=O)c2cc3c(cc2F)OCC3)C1 [Compound 42, (R)-N-(benz[d]thiazol-5-yl)-1-((6-fluoro-2,3-dihydrobenzofuran-5-yl)sulfonyl)pyrrolidine-3-carboxamide]",IC50,0.039 µM
same,EC80 MIN,2%
